For data set [1] the following is noted: rcm bond.
For data set [2] the following is noted: from C=CCCCC(c1ccc([C@H](C)Nc2ncc3c(n2)N(CC=C)C(=O)OC3)cc1)N1CCN(C(=O)OC(C)(C)C)CC1; rcm bond; 17-membered ring; Hoveyda-Grubbs II (2 x 0.1 eq); DCE; 8.67 mM; 60.0 °C; 15.0 h.
In a further data set the target is mIDH1R132H/S280F (Homo sapiens (Human), UniProt O75874, R132H/S280F). Kind of data set: mIDH1 R132H/S280F enzymatic activity assay (NADPH fluorescence). Format: biochemical. Particulars: enzyme assay, 1 hour preincubation; read-out: IDH1R132H/S280F IC50. Here is the method: (§1) The enzymatic activity of mIDH1R132H/S280F was assessed by measuring the fluorescence of the NADPH. The assay was performed in 384 well, white ProxiPlates (PerkinElmer, 6008280) in assay buffer containing 50 mM Hepes (Life Technologies, 15630080), 50 mM KCl (Teknova, P0327), 10 mM MgCl2 (Sigma-Aldrich, M1028), 1 mM DTT (Sigma-Aldrich, 43815), 0.02% BSA (Sigma-Aldrich, A3059) at pH 7.5. The final reaction volume was 10 μL. Stock solutions of the test compounds were prepared in 100% DMSO (Sigma, D2650) and serially diluted 1:3 using 100% DMSO. 50 nL of compound were then transferred to the assay plate using the Beckman Coulter ECHO 650 Acoustic Liquid Handler for a final DMSO concentration of 0.5%. 5 μL of a mIDH1R132H/S280F and NADPH (Santa Cruz, SC202725C) mixture were added to the assay plate for a final concentration of 2 nM and 10 PM, respectively. 5 μL of NADPH alone were added to negative control wells followed by a 1 hour preincubation at room temperature. 5 μL of alphaketoglutarate (Sigma-Aldrich, K1128) were added to the assay plate for a final concentration of 120 μM. Fluorescence of NADPH (excitation: 350 nm, emission 450 nm) was immediately measured kinetically for approximately 90 minutes using the BioTek Synergy Neo plate reader.

The target in another data set is mIDH2R140Q (Homo sapiens (Human), UniProt P48735, R140Q). Description: mIDH2 R140Q enzymatic activity assay (NADPH fluorescence). The data set is classed as biochemical. The following applies: enzyme assay, 1 hour preincubation; read-out: IDH2R140Q IC50. Here is the method: as §1, with “of mIDH2R140Q” for “of mIDH1R132H/S280F”, “a mIDH2R140Q” for “a mIDH1R132H/S280F”, “of 3” for “of 2”, “10 μM,” for “10 PM,”, “of 300” for “of 120”, “approximately 150” for “approximately 90”

Another data set concerns the target U87 IDH1R132H (Homo sapiens (Human), UniProt O75874, R132H). Description: U87 IDH1 R132H 2-HG cellular assay. The data set is classed as cell-based. The following applies: extracellular 2HG, 24 h treatment, IDH1 mutant-U-87 isogenic cell line. Here is the method:
The IDH1 mutant-U-87 isogenic cell line (ATCC HTB-14IG) used to test cellular inhibition is a glioma IDH1R132H mutant isogenic line derived from the parental U-87MG cell line. These cells are maintained in EMEM (ATCC 30-2003) culture media with 10% FBS and 10 U/mL Penicillin-Streptomycin. Twelve thousand cells are plated in polystyrene 384 well cell culture plates (Greiner Bio-One 781091) (12,000 cells/well) approximately 18 hours before compound treatment. Immediately before treatment, the cells are washed twice with PBS, followed by culture media replenishing. Cells are then treated with different concentrations of test compounds (5 μM to 0.3 pM) for 24 h. Extracellular 2HG levels are measured from cell culture media. For analyte extraction, 30 μL of culture media is transferred to 120 uL 100% acetonitrile in a deep 384 well plate and mixed well, followed by 5 min centrifugation at 3700 rpm at room temperature. 100 μL of supernatant is transferred to a flat bottom 384 well plate. Samples are run on the Agilent RapidFire-Mass Spectrometry instrument to detect 2HG levels. The samples from each well were aspirated for 600 ms and loaded onto a HILIC solid-phase extraction cartridge (Agilent) followed by a wash step for 3000 ms with 90% acetonitrile containing 5 mM ammonium acetate. Analytes were then eluted off the cartridge into the Agilent 6460 Triple Quad mass spectrometer with a 4500 ms elution step using 30% acetonitrile containing 5 mM ammonium acetate. The HILIC cartridge was then re-equilibrated by 90% acetonitrile containing 5 mM ammonium acetate for 500 ms. The 2HG was detected by an Agilent 6460 Triple Quad mass spectrometer in negative ion mode. Multiple reaction monitoring was used to quantify 2HG using the precursor ion and product ion at m/z 147.03 and 128.9, respectively. The percent activity of each sample is calculated by using DMSO and control compound treated references, and IC50 values are obtained using the GeneData Screener data analysis program.

In a further data set the target is TF1 IDH2R140Q (Homo sapiens (Human), UniProt P48735, R140Q). Kind of data set: TF1 IDH2 R140Q 2-HG cellular assay. The data set is classed as cell-based. Particulars: extracellular 2HG, 24 hr treatment, IDH2 mutant-TF1 isogenic cell line. Here is the method:
The IDH2 mutant-TF1 isogenic cell line (ATCC CRL-20031G) used to test cellular inhibition is an erythroblast cell line that was isolated from the marrow of a patient with erythroleukemia with the IDH2R140Q mutation. These cells are maintained in RPMI-1640 (ATCC 30-2001) culture media with 10% FBS, 10 U/mL Penicillin-Streptomycin, and 2 ng/mL GM-CSF. Thirty thousand cells are plated in polystyrene tissue culture treated 384 well cell culture plates (PerkinElmer 6007680) (30,000 cells/well) approximately 2 hours before compound treatment. Cells are then treated with different concentrations of test compounds (5 μM to 0.3 pM) for 24 hr. Extracellular 2HG levels are measured from cell culture media. For analyte extraction, 30 μL of culture media is transferred to 120 μL 100% acetonitrile in a deep 384 well plate and mixed well, followed by 5 min centrifugation at 3700 rpm at room temperature. 100 μL of supernatant is transferred to a flat bottom 384 well plate. Samples are run on the Agilent RapidFire-Mass Spectrometry instrument to detect 2HG levels. The samples from each well were aspirated for 600 ms and loaded onto a HILIC solid-phase extraction cartridge (Agilent) followed by a wash step for 3000 ms with 90% acetonitrile containing 5 mM ammonium acetate. Analytes were then eluted off the cartridge into the Agilent 6460 Triple Quad mass spectrometer with a 4500 ms elution step using 30% acetonitrile containing 5 mM ammonium acetate. The HILIC cartridge was then re-equilibrated by 90% acetonitrile containing 5 mM ammonium acetate for 500 ms. The 2HG was detected by an Agilent 6460 Triple Quad mass spectrometer in negative ion mode. Multiple reaction monitoring was used to quantify 2HG using the precursor ion and product ion at m/z 147.03 and 128.9, respectively. The percent activity of each sample is calculated by using DMSO and control compound treated references, and IC50 values are obtained using the GeneData Screener data analysis program.

Read-outs that look alike come from different tables or passages of the source.

Chain of U87 IDH1R132H (O75874 whole entry R132H): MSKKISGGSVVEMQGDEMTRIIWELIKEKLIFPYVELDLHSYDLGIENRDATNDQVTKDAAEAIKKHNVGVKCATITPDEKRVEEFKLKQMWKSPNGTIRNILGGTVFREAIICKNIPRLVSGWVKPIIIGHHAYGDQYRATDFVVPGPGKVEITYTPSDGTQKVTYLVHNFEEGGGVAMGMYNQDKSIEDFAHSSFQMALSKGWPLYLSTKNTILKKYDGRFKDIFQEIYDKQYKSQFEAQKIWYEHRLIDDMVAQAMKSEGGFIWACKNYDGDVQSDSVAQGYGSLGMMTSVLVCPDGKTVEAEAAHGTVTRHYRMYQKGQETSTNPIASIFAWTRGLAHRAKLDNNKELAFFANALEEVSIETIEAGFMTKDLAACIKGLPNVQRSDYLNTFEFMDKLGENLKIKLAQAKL
Chain of TF1 IDH2R140Q (P48735 40-452 R140Q): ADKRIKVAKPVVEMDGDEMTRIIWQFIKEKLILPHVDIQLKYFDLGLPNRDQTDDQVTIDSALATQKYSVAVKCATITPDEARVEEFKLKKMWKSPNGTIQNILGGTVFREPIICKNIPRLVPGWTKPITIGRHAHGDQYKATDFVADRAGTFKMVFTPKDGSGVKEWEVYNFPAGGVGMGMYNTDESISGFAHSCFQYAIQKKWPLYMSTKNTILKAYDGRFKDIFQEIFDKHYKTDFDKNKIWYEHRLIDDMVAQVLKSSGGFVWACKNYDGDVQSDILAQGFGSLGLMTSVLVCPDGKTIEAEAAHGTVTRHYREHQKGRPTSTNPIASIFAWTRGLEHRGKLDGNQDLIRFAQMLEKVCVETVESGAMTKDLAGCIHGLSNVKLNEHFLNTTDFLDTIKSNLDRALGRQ
Chain of mIDH2R140Q (P48735 40-452 R140Q): as above
Chain of mIDH1R132H/S280F (O75874 whole entry R132H/S280F): as the sequence (O75874 whole entry R132H) above, with S280F counted along it

`C[C@@H]1Nc2ncc3c(n2)N(CC=CCCCC(=O)c2ccc1cc2)C(=O)OC3` registered a ring closure, isolated yield in data set [1] (from C=CCCCC(=O)c1ccc([C@H](C)Nc2ncc3c(n2)N(CC=C)C(=O)OC3)cc1, 17-membered ring, Grubbs II (2 portions), DCM, 2.04 mM, 40.0 °C, 84.0 h) of 52%.

As to `C[C@@H]1Nc2ncc3c(n2)N(CC=CCCCC(N2CCN(C(=O)OC(C)(C)C)CC2)c2ccc1cc2)C(=O)OC3` (some centres unmarked), the ring closure, yield after HPLC in data set [2] was 21%.

Compound `C[C@@H]1Nc2ncc3c(n2)N(CC=CCCCCC(=O)c2ccc1cc2)C(=O)OC3` yielded a ring closure, isolated yield in data set [1] (from C=CCCCCC(=O)c1ccc([C@H](C)Nc2ncc3c(n2)N(CC=C)C(=O)OC3)cc1, 18-membered ring, Grubbs II (0.1 eq), DCM, 2.6 mM, 45.0 °C, 48.0 h) of 36.5%.

As for `C[C@@H]1Nc2ncc3c(n2)N(CCCCC=CCCC(N2CCN(C(=O)OC(C)(C)C)CC2)c2ccc1cc2)C(=O)OC3` (some centres unmarked), the ring closure, isolated yield in data set [1] (from C=CCCCCN1C(=O)OCc2cnc(N[C@@H](C)c3ccc(C(CCC=C)N4CCN(C(=O)OC(C)(C)C)CC4)cc3)nc21, 19-membered ring, Hoveyda-Grubbs II (0.21 eq), DCE, 16.6 mM, 60.0 °C, 9.0 h) turned out to be 49.2%.

As to `C=CC(=O)N1CCN(C2CCCCCCN3C(=O)OCc4cnc(nc43)N[C@@H](C)c3ccc2cc3)CC1` (single isomer, unassigned) [Example 7], the IC50 on mIDH1R132H/S280F is 295 nM; on mIDH2R140Q it was 1730 nM; against U87 IDH1R132H, 0.24 nM; against TF1 IDH2R140Q, 123 nM.

Regarding `C=CC(=O)N1CCN(C2CCCCCCN3C(=O)OCc4cnc(nc43)N[C@@H](C)c3ccc2cc3)CC1` (single isomer, unassigned) [Example 8], the IC50 on mIDH1R132H/S280F worked out at 922 nM; at mIDH2R140Q, 4730 nM; against U87 IDH1R132H it was 0.19 nM; against TF1 IDH2R140Q, 351 nM.

On to `C=CC(=O)N1CCN(C2CCCCCCCCN3C(=O)OCc4cnc(nc43)N[C@@H](C)c3ccc2cc3)CC1` (stereo partly drawn) [Example 1, (3S)-5-(4-acryloylpiperazin-1-yl)-3-methyl-1^1,1^4-dihydro-1^2H-2-aza-1(7,1)-pyrimido[4,5-d][1,3]oxazina-4(1,4)-benzenacyclotridecaphan-1^2-one], for which the IC50 was determined as 103 nM on mIDH1R132H/S280F, 1320 nM on mIDH2R140Q, 0.32 nM against U87 IDH1R132H and 269 nM against TF1 IDH2R140Q.

For the compound `C=CC(=O)N1CCN(C2CC/C=C\CCCCN3C(=O)OCc4cnc(nc43)N[C@@H](C)c3ccc2cc3)CC1` (stereo partly drawn) [Example 2, (3S,Z)-5-(4-acryloylpiperazin-1-yl)-3-methyl-1^1,1^4-dihydro-1^2H-2-aza-1(7,1)-pyrimido[4,5-d][1,3]oxazina-4(1,4)-benzenacyclotridecaphan-8-en-1^2-one], the IC50 at mIDH1R132H/S280F was 284 nM; on mIDH2R140Q it was 1840 nM; against U87 IDH1R132H, 0.31 nM; against TF1 IDH2R140Q, 342 nM.

For the compound `C=CC(=O)N1CCN(C2CCCC/C=C/CCN3C(=O)OCc4cnc(nc43)N[C@@H](C)c3ccc2cc3)CC1` (stereo partly drawn) [Example 5, (3S,E)-5-(4-acryloylpiperazin-1-yl)-3-methyl-1^1,1^4-dihydro-1^2H-2-aza-1(7,1)-pyrimido[4,5-d][1,3]oxazina-4(1,4)-benzenacyclotridecaphan-10-en-12-one], the results for the IC50 against U87 IDH1R132H and against TF1 IDH2R140Q were 0.1 nM and 215 nM, respectively.

As to `C=CC(=O)N1CCN(C2CCC/C=C/CN3C(=O)OCc4cnc(nc43)N[C@@H](C)c3ccc2cc3)CC1` (stereo partly drawn) [Example 6, (3S,Z)-5-(4-acryloylpiperazin-1-yl)-3-methyl-1^1,1^4-dihydro-1^2H-2-aza-1(7,1)-pyrimido[4,5-d][1,3]oxazina-4(1,4)-benzenacycloundecaphan-9-en-1^2-one], the values for the IC50 against U87 IDH1R132H and against TF1 IDH2R140Q were 0.26 nM and 1720 nM, respectively.

On to `C=CC(=O)N1CCN(C2CCCCCC[C@H](C)N3C(=O)OCc4cnc(nc43)N[C@@H](C)c3ccc2cc3)CC1` (stereo partly drawn) [Example 9, (3S,12S)-5-(4-acryloylpiperazin-1-yl)-3,12-dimethyl-1^1,1^4-dihydro-1^2H-2-aza-1(7,1)-pyrimido[4,5-d][1,3]oxazina-4(1,4)-benzenacyclododecaphan-1^2-one], for which the IC50 at mIDH1R132H/S280F is 94 nM; at mIDH2R140Q, 1490 nM; against U87 IDH1R132H, 0.14 nM; against TF1 IDH2R140Q, 504 nM.

Regarding `C=CC(=O)N1CCN(C2COCCCC[C@H](C)N3C(=O)OCc4cnc(nc43)N[C@@H](C)c3ccc2cc3)CC1` (stereo partly drawn) [Example 10, (3S,12S)-5-(4-acryloylpiperazin-1-yl)-3,12-dimethyl-1^1,1^4-dihydro-1^2H-7-oxa-2-aza-1(7,1)-pyrimido[4,5-d][1,3]oxazina-4(1,4)-benzenacyclododecaphan-1^2-one], the IC50 stood at 83 nM at mIDH1R132H/S280F, 4990 nM on mIDH2R140Q, 0.31 nM against U87 IDH1R132H and 1220 nM at TF1 IDH2R140Q.

These data come from patent US20250049809A1, “INHIBITORS OF MUTANT IDH1 AND IDH2” (Board of Regents, The University of Texas System, priority 2023, published 2025).
